Our source for the IC50 values is PubChem BioAssay AID2305 (GlaxoSmithKline (GSK), 2010).

The test system of the assay is P. falciparum 3D7 growth, pLDH absorbance. The experiment in a line: P. falciparum 3D7 growth inhibition, dose response, strain 3D7 (AID 2305).

`Cn1c(N)c(C(=O)CSc2ncc(-c3ccc(F)cc3)n2Cc2ccccc2)c(=O)n(C)c1=O` had an IC50 of 570 nM.
Then `Cc1cc(C(=O)NCc2ccc(-c3c(C)noc3C)cc2)n(-c2ccccc2)n1`, with 820 nM; and `COc1ccc2c(NN=Cc3ccccc3)cc(C)nc2c1`, with 850 nM.
Then `CCCCc1ccc(NC(=O)Nc2ccc3c(c2)CCNCC3)cc1`, with 580 nM; and `OCCN1CCN(C(=S)Nc2ccccc2)CC1`, with 940 nM.
Next, `COc1ccc(CNC(=O)c2cnc3c(O)cccc3c2Nc2cccc(NC(=O)c3ccc(Cl)c([N+](=O)[O-])c3)c2)cc1`: 950 nM; `CCCCCCCN(CCCCCCC)CCCC(=O)Nc1ccnc2ccc(OC)cc12`: 150 nM.
For `CCOc1cc(NC(=O)Nc2ccnc3ccccc23)cc(OC)c1`, the IC50 amounted to 870 nM.
Then `NC1CCN(Cc2cccc(-c3cccc(-c4nc5ccccc5[nH]4)c3)c2)C1` (stereo not drawn), with 790 nM.
`Cc1ccnc(NC(=O)c2cc(-c3cccc([N+](=O)[O-])c3)nc3onc(C)c23)c1` showed an IC50 of 890 nM.
Then `O=C(Nc1cccc(C(F)(F)F)c1)c1ccc(S(=O)(=O)NC2CCN(CC3CCCCC3)C2)cc1` (stereo not drawn), with 790 nM; and `CCN(CCO)CCCC(C)Nc1ccnc2cc(Cl)ccc12` (stereo not drawn), with 760 nM; and `CCCCCCN1CCCN(Cc2ccc(C(=O)Nc3ccc(C(C)(C)C)cc3)cc2)CC1`, with 740 nM.
The compound `COc1ccc(-c2cccc(NC(=O)c3ccc(Cl)cc3)c2)cc1CN(C)CCN(C)C` came in with an IC50 of 780 nM.
Then `Cc1cc(NN=Cc2ccccc2Cl)c2cc(C(F)(F)F)ccc2n1`, with 860 nM.
Then `CCc1cc(-c2onc(C)c2-c2cc3ccccc3o2)c(O)cc1OC`, with 970 nM.
Then `Cc1nc(Nc2ccc(C)c(Cl)c2)c2c(C)noc2n1`, with 890 nM.
Take `Clc1cccc(Nc2ccc3c(N4CCCCC4)ncnc3n2)c1`: the IC50 worked out at 580 nM.
Next, `CCc1cc2c(Sc3nnc(N)s3)ncnc2s1`: 660 nM.
Then `Cc1cc2ccc(/C=C/C(=O)NC3CCC(CCN4CCc5ccc(C#N)cc5CC4)CC3)cc2[nH]1` (stereo not drawn), with 940 nM; and `Nc1nc(N)c2c3c(cnc2n1)CCCC3`, with 770 nM; and `CN1CCN(c2ccc(-c3cc(-c4ccncc4)c(-c4ccc(Cl)c(O)c4)o3)cc2)CC1`, with 740 nM.
Next, `COc1c(CNCCCCCCNCc2c(OC)c(OC)c3ccccc3c2OC)c(OC)c2ccccc2c1OC`: 960 nM; `Cc1cc(C)c(C(=O)Nc2ccc3nc(C)cc(N)c3c2)c(C)c1`: 1090 nM; `CC(CN=C(N)c1cccc(C(N)=NCC(C)Oc2cccc(C3CCCCC3)c2)n1)Oc1cccc(C2CCCCC2)c1` (stereo not drawn): 920 nM.
`CN(C)C1CCN(CC#Cc2cc3ncnc(Nc4ccc(OCc5cccc(F)c5)c(Cl)c4)c3s2)CC1` registered an IC50 of 890 nM.
Next, `Cc1cc([N+](=O)[O-])ccc1NC(=O)Nc1cccc(C(F)(F)F)c1`: 720 nM.
`COC(=O)c1ccccc1N1CCN(CCCCNC(=O)c2ccc(NC(=O)c3cc(Cl)cc(Cl)c3)cc2)CC1` came in with an IC50 of 560 nM.
Next, `CCn1cc(C=C2Oc3c(ccc(O)c3CN3CCCCC3C)C2=O)c2ccccc21` (stereo not drawn): 1020 nM; `Cn1nc(C(F)(F)F)c(-c2ccc(F)cc2)c1NC(=O)Nc1ccccc1`: 800 nM; `C[C@@H](Oc1cc(-n2cnc3cc(SCCN4CCN(C)CC4)ccc32)sc1C(N)=O)c1ccccc1Cl`: 510 nM.
Next, `Cc1ccc(NC(=O)c2ccc(CN3CCCN(Cc4cccc(C#N)c4)CC3)cc2)cc1F`: 590 nM; `CCOc1cc(C(=O)N[C@@H](Cc2ccccc2)[C@H](O)CNCc2cc(OC)cc(OC)c2)cc(N2CCCC2=O)c1`: 850 nM.
Then `CC1Cc2ccccc2N1S(=O)(=O)c1cc(OCC(F)(F)F)ccc1OCC(F)(F)F` (stereo not drawn), with 650 nM.
In the case of `Cc1ccc(O)cc1Nc1ccnc2cc(-c3csc(CN(C)CCN(C)C)n3)ccc12`, the IC50 came to 790 nM.
Then `Cc1noc(C)c1C(=O)N1CCCC(c2[nH]c3c(C)cccc3c2-c2ccncc2)C1` (stereo not drawn), with 840 nM; and `CCN(CC)CCCN(CCCN(CC)CC)c1cc(C)nc(Nc2ccc3cc(Br)ccc3c2)n1`, with 570 nM.
Next, `NC(=Nc1nc(-c2ccccn2)cc2ccccc12)c1cccc(Cl)c1`: 310 nM; `CCN1CCC(N(Cc2ccc(-c3ccc(C(F)(F)F)cc3)cc2)C(=O)Cn2nc(C)c(=O)cc2SCc2ccc(F)cc2)CC1`: 1010 nM; `COc1ccc(OC)c2c1C[C@@H]1NC[C@H]2c2c(OC)ccc(OC)c21`: 970 nM.
Next, `NC1CCN(c2nc(NCCc3ccc(O)cc3)nc(NCc3ccccc3-c3ccccc3)n2)CC1`: 820 nM.
Consider `CCCCC1(NC(=O)[C@H](CC(C)C)Nc2ccc(C#N)c3ccccc23)CCCCC1`, for which the IC50 was 800 nM.
Then `C=CCNC(=O)CCCN=C(N)N`, with 720 nM; and `COCCN1CCN(Cc2ccc(-c3ccc(-c4nc5c(C)cccc5[nH]4)s3)cc2)CC1`, with 860 nM; and `O=C(Nc1ccc(Cl)cc1F)NC1CCN(CCCCCNC(=O)[C@@H]2C[C@H]2c2ccc(Cl)c(Cl)c2)CC1`, with 510 nM.
Next, `COc1ccc(-c2cn3c(C(=O)Nc4ccccc4Cl)c(-c4ccccc4)c4c3n2CCCC4)cc1`: 790 nM.
Next, `Clc1cc(Nc2ncnc3sc(C#Cc4ncc[nH]4)cc23)ccc1OCc1ccccn1`: 1110 nM; `Cc1ccc(NC(=O)C(C)Sc2n[nH]c(-c3ccccc3Br)n2)cc1` (stereo not drawn): 1090 nM; `Oc1cccc(-c2nc(-c3cccc(I)c3)c(-c3ccc(-c4nc(-c5cccc(O)c5)[nH]c4-c4cccc(I)c4)cc3)[nH]2)c1`: 920 nM.
`NC1CCCN(Cc2cccc(-c3ccc(-c4nc5ccccc5[nH]4)s3)c2)C1` (stereo not drawn): the IC50 was determined as 580 nM.
Next, `O=C(NC1CCC(CN2CCC(c3c[nH]c4ccccc34)CC2)CC1)c1cnn(-c2ccccc2)c1-c1ccccc1Cl` (stereo not drawn): 180 nM; `COc1cc(NC(=O)c2sc(-c3ccc(Cl)cc3)cc2NC(=O)c2cccc(N(C)C)c2)ccc1OCCN1CCCC1`: 710 nM; `CCCN1CCc2c(sc3nc(SCC(=O)Nc4ccc(C)cc4)n(-c4ccc(C)cc4)c(=O)c23)C1`: 870 nM.
Next, `CCCN(CCC)CCOC(=O)C(OCC)(c1ccccc1)c1ccccc1`: 870 nM.
For the compound `O=C(/C=C/c1ccc(Cl)c(Cl)c1)NCCC1CCC(N2CCC(c3c[nH]c4ccccc34)CC2)CC1` (stereo not drawn), the IC50 is 200 nM.
Next, `CNCc1cccc2[nH]c(-c3ccc(Cc4cc(Cl)ccc4OCC(C)C)o3)nc12`: 900 nM.
Next, `COc1cc(CNC[C@@H](O)[C@H](Cc2ccccc2)NC(=O)c2cc(C3CCCC3)cc(N3CCCCS3(=O)=O)c2)cc(OC)c1`: 700 nM; `COc1ccc(CNCc2ccc(-c3ccc(-c4nc5c(C)cccc5[nH]4)cc3)cc2)cc1`: 340 nM.
Then `NCC1CCCN1Cc1cccc(-c2ccc(-c3nc4ccccc4[nH]3)s2)c1` (stereo not drawn), with 1040 nM; and `NC(N)=Nc1nc(-c2cccc(NC(=O)Cc3ccccc3)c2)cs1`, with 1000 nM.
Compound `COc1ccc2nc(C)cc(NCc3ccc4ccccc4c3)c2c1` showed an IC50 of 470 nM.
Then `O=C(NC1CCC(CN2CCC(c3c[nH]c4ccccc34)CC2)CC1)c1cc(-c2ccccc2)c(C(F)(F)F)s1` (stereo not drawn), with 170 nM.
For the compound `COC(=O)C(=O)c1c(-c2ccccc2)c(-c2ccc(OC)c(OC)c2)c2c3cc(OC)c(OC)cc3ccn12`, the IC50 was 640 nM.
Then `CCOc1cc(C(=O)NC2CC(C)(C)NC(C)(C)C2)ccc1-c1cc2cc(Cl)c(Cl)cc2[nH]1`, with 770 nM; and `Cc1cc(C)c(NC(=O)N[C@H]2CCN(CCCCCNC(=O)/C=C/c3ccc(Cl)c(Cl)c3)C2)c(C)c1`, with 950 nM.
Then `CCc1cn2c3c(cc(C(=O)N[C@@H](Cc4cc(F)cc(F)c4)[C@H](O)CNC4CCOCC4)cc13)N(C)S(=O)(=O)CC2`, with 30 nM.
Next, `COc1ccc(N(C)Cc2cnc3nc(N)nc(N)c3n2)cc1`: 280 nM; `Nc1c2c(nc3ccc(NC(=O)c4ccc([N+](=O)[O-])cc4)cc13)CCCC2`: 240 nM; `CC(C)CCN1CCC(Oc2ccc(NC(=O)c3cccs3)cc2Cl)C1` (stereo not drawn): 1100 nM.
On to `COc1ccccc1/C=C/C(=O)N(C)C1CCN(CCCCCNC(=O)/C=C/c2ccc(Cl)c(Cl)c2)CC1`, for which the IC50 turned out to be 440 nM.
Next, `CC[C@H]1CN2CC[C@@H]1C[C@H]2[C@H](O)c1cc(N2CCSCC2)nc2ccc(OC)cc12`: 200 nM.
With `Cc1ccc([N+](=O)[O-])cc1NC(=O)N(CC(O)c1ccccc1)C1CCCCC1` (stereo not drawn), the IC50 is 730 nM.
Take `CSc1ccc(NC(=O)Nc2cc(C)nc3ccccc23)cc1`: the IC50 stood at 710 nM.
Then `CCCCNc1ccc(C(=O)NC2CCN(C[C@H](O)c3ccnc4ccc(OC)cc34)CC2)cc1`, with 440 nM; and `Cc1cccc(CNc2nccc3[nH]c4ccccc4c23)c1`, with 1900 nM.
Then `Cc1cc(-c2cc3nc4c(c(=O)n3[nH]2)CCCC4)c(C)o1`, with 820 nM.
Next, `Nc1c2c(nc3ccc(NC(=O)Cc4ccccc4)cc13)CCCC2`: 760 nM; `CCOC(=O)c1ccc(N2CCN(c3cc(Cl)ccc3C)CC2)c(NC(=O)Nc2ccc(Cl)c(Cl)c2)c1`: 580 nM.
Take `O=[N+]([O-])c1cc(/C=N/Nc2nc3ccccc3[nH]2)ccc1O`: the IC50 came out at 950 nM.
Next, `NCCNC(=O)c1ccc(-c2cnc3[nH]cc(-c4ccc(C(N)=O)cc4)c3c2)cc1`: 170 nM; `Oc1ccc2ccccc2c1CNCCC1CCCCC1`: 170 nM; `Brc1cc(Br)c2c(c1)C(NCCCNC1CCNc3c(Br)cc(Br)cc31)CCN2` (stereo not drawn): 820 nM.
Then `NCCCN(Cc1ccc(Cl)c(Cl)c1)C(=O)Nc1ccc(Cl)c(Cl)c1`, with 900 nM; and `CCn1ccc2c(N3CCCC3=O)cc(C(=O)N[C@@H](Cc3ccccc3)[C@H](O)CNC(C)(C)CCCC(C)C)cc21`, with 350 nM.
The compound `c1ccc2c(CNCCCCCCNCc3c(OCC4CC4)ccc4ccccc34)c(OCC3CC3)ccc2c1` came in with an IC50 of 930 nM.
Next, `O=C(Nc1ccc(Cl)cn1)c1sc2ccccc2c1O`: 1040 nM; `CN1CCC(N(Cc2ccc(-c3ccc(C(F)(F)F)cc3)cc2)C(=O)Cn2c(SCc3cccc(F)c3F)cc(=O)c3c2CCC3)CC1`: 160 nM.
Next, `COC(=O)c1ccc(CC(C)NCC(O)c2cccc(C(F)(F)F)c2)c(Cl)c1` (stereo not drawn): 850 nM.

As usually defined, the IC50 is the concentration needed to halve the response being measured. A lower IC50 goes with greater potency.
